Measurements as given in patent US3933782A, “(N-Acetyl)-Pro-D-Phe-Trp-Ser-Tyr-D-Ala-Leu-Arg-Pro-NHEt and intermediates” (American Home Products Corporation, priority 1974, dated 1976).
Where a SMILES comes first, the peptide text is derived from it. [ ]: non-standard residue; d: D form. pGlu = O=C1CC[C@@H](C(=O)O)N1

Tests used:
[1] = system: ovulation in mature Sprague-Dawley rats; conditions: same rat ovulation test; absence of or significant decrease in number of ova is the criterion
Method: The test was conducted with mature Sprague-Dawley rats, normally cycling, unanesthetized, proestrous rats. On the afternoon of proestrous, each rat in the test group received six subcutaneous injections of the acetate salt of formula I in corn oil, each injection being given a half hour following the previous injection. The rats are sacrificed the next morning and the number of animals ovulating and the number of ova shed are recorded following the procedure described by E. S. France, Neuroendocrinology 6, pp 77-89 (1970). The absence of or a significant decrease in the number of ova is the criterion for an anti-ovulation effect.

ovulation = conditions: as described in Ser. No. 402,958, now U.S. Pat. No. 3,855,199; cited from earlier work

Row | Molecule | antiovulatory activity (result in words) [1] | anti-ovulatory activity (result in words) (ovulation)
1 | CCNC(=O)[C@@H]1CCCN1C(=O)[C@H](CCCNC(=N)N)NC(=O)[C@H](CC(C)C)NC(=O)[C@@H](C)NC(=O)[C@H](Cc1ccc(O)cc1)NC(=O)[C@H](CO)NC(=O)[C@H](Cc1c[nH]c2ccccc12)NC(=O)[C@@H](Cc1ccccc1)NC(=O)[C@@H]1CCC(=O)N1 [p-Glu-D-Phe-Trp-Ser-Tyr-D-Ala-Leu-Arg-Pro-NHEt] ([pGlu][dF]WSY[dA]LRP-NHEt) | devoid of antiovulatory activity | 
2 | [D-Phe^2 -D-Ala^6 ]-LRF |  | having anti-ovulatory activity
